For this test, the species on record is Cavia porcellus. The test can be described thus: Antioxidative activity was evaluated by using the lipid peroxidation of guinea pig liver microsomes. The format is functional. In general terms: Microsomes from liver hold many membrane-bound enzymes, among them those of drug oxidation.
For the molecule `COc1c2c(cc(O)c1-c1ccc(-c3ccccc3)cc1)OCO2`, half-maximal inhibition (IC50) was put at 107 µM.

`COc1c2c(cc(O)c1-c1cc3ccccc3o1)OCO2`: the IC50 (commonly the midpoint of a concentration-inhibition curve) stood at 98 µM.

With `Cc1c(C)c2c(c(C)c1O)CC[C@@](C)(CCC[C@H](C)CCC[C@H](C)CCCC(C)C)O2` [ALPHA-TOCOPHEROL], the IC50 is 280 µM.

With `COc1c2c(cc(O)c1-c1cccs1)OCO2`, the midpoint of inhibition, the IC50, lay at 44 µM.

In turn, `CCCOC(=O)c1cc(O)c(O)c(O)c1` [PROPYL GALLATE] returned an IC50 of 50 µM.

In turn, `COc1c2c(cc(O)c1-c1ccc(C)cc1)OCO2` showed an IC50 of 65 µM.

As to `COc1ccc(-c2c(O)cc3c(c2OC)OCO3)cc1`, the midpoint of inhibition, the IC50, lay at 56 µM.

In the case of `COc1c2c(cc(O)c1-c1ccccc1)OCO2`, half-maximal inhibition (IC50) required 83 µM.

The values are drawn from ChEMBL document CHEMBL1132086, “Total synthesis of an antioxidant isolated from yeast via palladium-catalyzed coupling and its application for related compounds” (Bioorg Med Chem Lett, 1999).
